Measurements as given in US20110046040A1, “Microorganism-inactivating agent” (CHISSO CORPORATION, priority 2009, published 2011).

Experiments:
Format in all cases: cell-based
Bacillus cereus = test: inactivation of microorganisms in water, number of cells in supernatant
Description: (§1) Each test microbe was inoculated to nutrient broth and cultured with shaking at the optimum temperature of the test microbe until the late logarithmic phase. From the microbe culture, the microbe was collected, and the collected microbe was washed with 1.5 mL of physiological saline 2 to 3 times (centrifugation at 13000 rpm for 1 minute) and suspended in 1.5 mL of physiological saline. From the suspension, a 1 mL aliquot was recovered, and this was added to 9 mL of sterile water, followed by sufficient stirring of the resulting suspension (this was used as 10^−1 dilution). From the 10^−1 dilution, 10^−2 to 10^−8 dilutions were sequentially prepared. Each dilution was smeared on a film medium (Sanita-kun; for E. coli and coliform bacteria, for Staphylococcus aureus, for Salmonella, for aerobic bacteria or for fungi: Chisso Corporation) in an amount of 1 mL, followed by culturing at the optimum temperature of the test microbe for 24 to 72 hours and measurement of the number of cells on the film medium.
(§2) To a sterilized beaker, 500 mL of sterilized water was placed, and 0.20 mL of microbe culture of 10^6 to 10^10 cells/mL was inoculated thereto, to attain an initial cell number of 10^3 to 10^7 cells/mL. Unless otherwise specified, the pH was 6 to 8. After stirring the suspension gently for 5 minutes, PGα21Ca (Nippon Poly-Glu Co., Ltd.) and/or a microbiostatic agent or microbicide was/were added thereto such that a predetermined final concentration(s) was/were attained. After gentle stirring at room temperature for 10 to 15 minutes, the suspension was left to stand for a predetermined length of time. The supernatant was collected and diluted appropriately in an antimicrobial agent-inactivating medium (BHI medium or the like), and 1 mL each of the resulting diluent was smeared on a film medium. Culturing was carried out at the optimum temperature of each test microbe for 24 to 72 hours and the number of cells (cells/mL) on the film medium was measured.

Bacillus subtilis = test: as above
Description: as §1, §2

Escherichia coli [1] = test: as above
Description: as §1, §2

Klebsiella pneumoniae = test: as above
Description: as §1, §2

Listeria monocytogenes = test: as above
Description: as §1, §2

Pseudomonas aeruginosa = test: as above
Description: as §1, §2

Salmonella choleraesuis = test: as above
Description: as §1, §2

Staphylococcus aureus [2] = test: as above
Description: as §1, §2

Escherichia coli [3] = test: inactivation with further addition of the microorganism after predetermined periods; settings: ε-poly-L-lysine 5 ppm
Description: as §1, §2
(§3) (3) The inactivation effect of ε-poly-L-lysine, which is a microbicide related to the microorganism-inactivating agent of the present invention, upon its single application to water containing Escherichia coli, Salmonella or Staphylococcus, followed by further addition of the respective microorganisms after predetermined periods of time was studied. The addition of the microorganisms was carried out at 24, 48, 72 and 144 hours after sampling. ε-poly-L-lysine was added at a concentration of 5 ppm. […]

Salmonella enterica = test: as above; settings: ε-poly-L-lysine 5 ppm
Description: as §1, §2, §3

Staphylococcus aureus [4] = test: as above; settings: ε-poly-L-lysine 5 ppm
Description: as §1, §2, §3

[5] = ε-poly-L-lysine 10 ppm, 0 minute later 7.5 × 10^4
[6] = ε-poly-L-lysine 10 ppm, 0 minute later 2.9 × 10^4
[7] = ε-poly-L-lysine 5 ppm, initial 3.2 × 10^7
[8] = ε-poly-L-lysine 10 ppm, 0 minute later 2.5 × 10^6
[9] = ε-poly-L-lysine 10 ppm, initial 3.2 × 10^7
[10] = ε-poly-L-lysine 10 ppm, 0 minute later 3.3 × 10^5
[11] = ε-poly-L-lysine 10 ppm, 0 minute later 8.1 × 10^4
[12] = ε-poly-L-lysine 10 ppm, 0 minute later 6.2 × 10^5
[13] = ε-poly-L-lysine 5 ppm, initial 1.2 × 10^7
[14] = ε-poly-L-lysine 10 ppm, 0 minute later 3.2 × 10^5
[15] = ε-poly-L-lysine 10 ppm, initial 1.2 × 10^7
[16] = ε-poly-L-lysine 10 ppm, 0 minute later 2.3 × 10^4
[17] = further addition of microbe at 24 h (1.3 × 10^8)
[18] = further addition of microbe at 48 h (5.0 × 10^6)
[19] = further addition of microbe at 72 h (6.6 × 10^6)
[20] = further addition of microbe at 144 h (1.2 × 10^7)
[21] = further addition of microbe at 24 h (3.2 × 10^7)
[22] = further addition of microbe at 48 h (3.6 × 10^6)
[23] = further addition of microbe at 72 h (3.0 × 10^6)
[24] = further addition of microbe at 144 h (3.1 × 10^6)
[25] = further addition of microbe at 24 h (2.2 × 10^7)
[26] = further addition of microbe at 48 h (1.4 × 10^6)
[27] = further addition of microbe at 72 h (6.1 × 10^6)
[28] = further addition of microbe at 144 h (7.9 × 10^6)

Substance: ε-poly-L-lysine
- number of cells 2 hours later (Bacillus cereus; 10 ppm, pH 8, initial 9.5 × 10^4): 290 cells/mL
- number of cells 5 minutes later (Bacillus cereus; [5]): 140 cells/mL
- number of cells 15 minutes later (Bacillus cereus; [5]): 110 cells/mL
- number of cells 60 minutes later (Bacillus cereus; [5]): 80 cells/mL
- number of cells 120 minutes later (Bacillus cereus; [5]): <10 cells/mL
- number of cells 2 hours later (Bacillus subtilis; 10 ppm, pH 8, initial 6.0 × 10^4): <10 cells/mL
- number of cells 5 minutes later (Bacillus subtilis; [6]): 4 × 10^3 cells/mL
- number of cells 15 minutes later (Bacillus subtilis; [6]): 30 cells/mL
- number of cells 60 minutes later (Bacillus subtilis; [6]): <10 cells/mL
- number of cells 120 minutes later (Bacillus subtilis; [6]): <10 cells/mL
- number of cells 2 hours later (Escherichia coli [1]; 10 ppm, pH 8, initial 5.8 × 10^4): <10 cells/mL
- number of cells 0.5 hour later (Escherichia coli [1]; [7]): 3.2 × 10^3 cells/mL
- number of cells 1 hour later (Escherichia coli [1]; [7]): <10 cells/mL
- number of cells 2 hours later (Escherichia coli [1]; [7]): <10 cells/mL
- number of cells 5 minutes later (Escherichia coli [1]; [8]): 1.32 × 10^4 cells/mL
- number of cells 15 minutes later (Escherichia coli [1]; [8]): 10 cells/mL
- number of cells 60 minutes later (Escherichia coli [1]; [8]): <10 cells/mL
- number of cells 120 minutes later (Escherichia coli [1]; [8]): <10 cells/mL
- number of cells 0.5 hour later (Escherichia coli [1]; [9]): 300 cells/mL
- number of cells 1 hour later (Escherichia coli [1]; [9]): <10 cells/mL
- number of cells 2 hours later (Escherichia coli [1]; [9]): <10 cells/mL
- number of cells 2 hours later (Klebsiella pneumoniae; 10 ppm, pH 8, initial 1.3 × 10^5): <10 cells/mL
- number of cells 5 minutes later (Klebsiella pneumoniae; [10]): 1.8 × 10^4 cells/mL
- number of cells 15 minutes later (Klebsiella pneumoniae; [10]): 1.87 × 10^3 cells/mL
- number of cells 60 minutes later (Klebsiella pneumoniae; [10]): 10 cells/mL
- number of cells 120 minutes later (Klebsiella pneumoniae; [10]): <10 cells/mL
- number of cells 2 hours later (Listeria monocytogenes; 10 ppm, pH 8, initial 2.0 × 10^4): <10 cells/mL
- number of cells 5 minutes later (Listeria monocytogenes; [11]): 780 cells/mL
- number of cells 15 minutes later (Listeria monocytogenes; [11]): 40 cells/mL
- number of cells 60 minutes later (Listeria monocytogenes; [11]): 20 cells/mL
- number of cells 120 minutes later (Listeria monocytogenes; [11]): <10 cells/mL
- number of cells 2 hours later (Pseudomonas aeruginosa; 10 ppm, pH 8, initial 2.0 × 10^5): <10 cells/mL
- number of cells 5 minutes later (Pseudomonas aeruginosa; [12]): 2.16 × 10^4 cells/mL
- number of cells 15 minutes later (Pseudomonas aeruginosa; [12]): 240 cells/mL
- number of cells 60 minutes later (Pseudomonas aeruginosa; [12]): 20 cells/mL
- number of cells 120 minutes later (Pseudomonas aeruginosa; [12]): <10 cells/mL
- number of cells 2 hours later (Salmonella choleraesuis; 10 ppm, pH 8, initial 4.7 × 10^4): <10 cells/mL
- number of cells 0.5 hour later (Salmonella choleraesuis; [13]): 50 cells/mL
- number of cells 1 hour later (Salmonella choleraesuis; [13]): 20 cells/mL
- number of cells 2 hours later (Salmonella choleraesuis; [13]): <10 cells/mL
- number of cells 5 minutes later (Salmonella choleraesuis; [14]): 480 cells/mL
- number of cells 15 minutes later (Salmonella choleraesuis; [14]): 1.4 × 10^3 cells/mL
- number of cells 60 minutes later (Salmonella choleraesuis; [14]): 120 cells/mL
- number of cells 120 minutes later (Salmonella choleraesuis; [14]): <10 cells/mL
- number of cells 0.5 hour later (Salmonella choleraesuis; [15]): <10 cells/mL
- number of cells 1 hour later (Salmonella choleraesuis; [15]): <10 cells/mL
- number of cells 2 hours later (Salmonella choleraesuis; [15]): <10 cells/mL
- number of cells 2 hours later (Staphylococcus aureus [2]; 10 ppm, pH 8, initial 4.3 × 10^4): <10 cells/mL
- number of cells 0.5 hour later (Staphylococcus aureus [2]; [13]): 4.0 × 10^4 cells/mL
- number of cells 1 hour later (Staphylococcus aureus [2]; [13]): 2.2 × 10^4 cells/mL
- number of cells 2 hours later (Staphylococcus aureus [2]; [13]): 4.2 × 10^3 cells/mL
- number of cells 5 minutes later (Staphylococcus aureus [2]; [16]): 8.1 × 10^3 cells/mL
- number of cells 15 minutes later (Staphylococcus aureus [2]; [16]): 2.55 × 10^3 cells/mL
- number of cells 60 minutes later (Staphylococcus aureus [2]; [16]): 2 × 10^3 cells/mL
- number of cells 120 minutes later (Staphylococcus aureus [2]; [16]): 440 cells/mL
- number of cells 0.5 hour later (Staphylococcus aureus [2]; [15]): 5.0 × 10^4 cells/mL
- number of cells 1 hour later (Staphylococcus aureus [2]; [15]): 7.0 × 10^3 cells/mL
- number of cells 2 hours later (Staphylococcus aureus [2]; [15]): 4.8 × 10^3 cells/mL
- number of cells, elapsed time 26 hours (Escherichia coli [3]; [17]): <10 cells/mL
- number of cells, elapsed time 28 hours (Escherichia coli [3]; [17]): <10 cells/mL
- number of cells, elapsed time 48 hours (Escherichia coli [3]; [17]): <10 cells/mL
- number of cells, elapsed time 50 hours (Escherichia coli [3]; [18]): <10 cells/mL
- number of cells, elapsed time 52 hours (Escherichia coli [3]; [18]): <10 cells/mL
- number of cells, elapsed time 72 hours (Escherichia coli [3]; [18]): <10 cells/mL
- number of cells, elapsed time 74 hours (Escherichia coli [3]; [19]): <10 cells/mL
- number of cells, elapsed time 76 hours (Escherichia coli [3]; [19]): <10 cells/mL
- number of cells, elapsed time 96 hours (Escherichia coli [3]; [19]): <10 cells/mL
- number of cells, elapsed time 144 hours (Escherichia coli [3]; [19]): <10 cells/mL
- number of cells, elapsed time 146 hours (Escherichia coli [3]; [20]): <10 cells/mL
- number of cells, elapsed time 148 hours (Escherichia coli [3]; [20]): <10 cells/mL
- number of cells, elapsed time 168 hours (Escherichia coli [3]; [20]): <10 cells/mL
- number of cells, elapsed time 2 hours (Escherichia coli [3]; initial 1.0 × 10^6): <10 cells/mL
- number of cells, elapsed time 4 hours (Escherichia coli [3]; initial 1.0 × 10^6): <10 cells/mL
- number of cells, elapsed time 24 hours (Escherichia coli [3]; initial 1.0 × 10^6): <10 cells/mL
- number of cells, elapsed time 26 hours (Salmonella enterica; [21]): <10 cells/mL
- number of cells, elapsed time 28 hours (Salmonella enterica; [21]): <10 cells/mL
- number of cells, elapsed time 48 hours (Salmonella enterica; [21]): <10 cells/mL
- number of cells, elapsed time 50 hours (Salmonella enterica; [22]): <10 cells/mL
- number of cells, elapsed time 52 hours (Salmonella enterica; [22]): <10 cells/mL
- number of cells, elapsed time 72 hours (Salmonella enterica; [22]): <10 cells/mL
- number of cells, elapsed time 74 hours (Salmonella enterica; [23]): <10 cells/mL
- number of cells, elapsed time 76 hours (Salmonella enterica; [23]): <10 cells/mL
- number of cells, elapsed time 96 hours (Salmonella enterica; [23]): <10 cells/mL
- number of cells, elapsed time 144 hours (Salmonella enterica; [23]): <10 cells/mL
- number of cells, elapsed time 146 hours (Salmonella enterica; [24]): <10 cells/mL
- number of cells, elapsed time 148 hours (Salmonella enterica; [24]): <10 cells/mL
- number of cells, elapsed time 168 hours (Salmonella enterica; [24]): <10 cells/mL
- number of cells, elapsed time 2 hours (Salmonella enterica; initial 3.0 × 10^6): <10 cells/mL
- number of cells, elapsed time 4 hours (Salmonella enterica; initial 3.0 × 10^6): <10 cells/mL
- number of cells, elapsed time 24 hours (Salmonella enterica; initial 3.0 × 10^6): <10 cells/mL
- number of cells, elapsed time 26 hours (Staphylococcus aureus [4]; [25]): 2.2 × 10^6 cells/mL
- number of cells, elapsed time 28 hours (Staphylococcus aureus [4]; [25]): 2.1 × 10^5 cells/mL
- number of cells, elapsed time 48 hours (Staphylococcus aureus [4]; [25]): <10 cells/mL
- number of cells, elapsed time 50 hours (Staphylococcus aureus [4]; [26]): 2.5 × 10^4 cells/mL
- number of cells, elapsed time 52 hours (Staphylococcus aureus [4]; [26]): 1.2 × 10^4 cells/mL
- number of cells, elapsed time 72 hours (Staphylococcus aureus [4]; [26]): <10 cells/mL
- number of cells, elapsed time 74 hours (Staphylococcus aureus [4]; [27]): 1.7 × 10^3 cells/mL
- number of cells, elapsed time 76 hours (Staphylococcus aureus [4]; [27]): 20 cells/mL
- number of cells, elapsed time 96 hours (Staphylococcus aureus [4]; [27]): <10 cells/mL
- number of cells, elapsed time 144 hours (Staphylococcus aureus [4]; [27]): <10 cells/mL
- number of cells, elapsed time 146 hours (Staphylococcus aureus [4]; [28]): 1.0 × 10^3 cells/mL
- number of cells, elapsed time 148 hours (Staphylococcus aureus [4]; [28]): 90 cells/mL
- number of cells, elapsed time 168 hours (Staphylococcus aureus [4]; [28]): <10 cells/mL
- number of cells, elapsed time 2 hours (Staphylococcus aureus [4]; initial 2.0 × 10^6): <10 cells/mL
- number of cells, elapsed time 4 hours (Staphylococcus aureus [4]; initial 2.0 × 10^6): <10 cells/mL
- number of cells, elapsed time 24 hours (Staphylococcus aureus [4]; initial 2.0 × 10^6): <10 cells/mL
